Patent US9814789B2, “Radiopharmaceutical products for diagnosis and therapy of adrenal carcinoma” (JULIUS-MAXIMILIANS-UNIVERSITÄT WÜRZBURG, priority 2012, dated 2017)
Read-outs that look alike come from different tables or passages of the source.

Columns and labels:
[1] = test system: adrenal gland and other organs; test: Biodistribution in mice; format: in vivo; details: male CD-1 mice, i.v. 37 kBq, 15 min to 4 h
Procedure: The biodistribution of IMTO, (R)-1-[1-(4-iodophenyl)ethyl]-1H-imidazole-5-carboxylic acid ethyl-methyl amide (compound 2a) and (R)-1-[1-(4-iodophenyl)ethyl]-1H-imidazole-5-carboxylic acid azetidinylamide (compound 2e) has been assessed in mice as follows. Male CD-1 mice were injected iv with 1 μCi (37 kBq) (R)-1-[1-(4-[^125I]iodophenyl)ethyl]-1H-imidazole-5-carboxylic acid ethyl-methyl amide. At predefined time points (15 min, 30 min, 2 h, and 4 h), mice were killed (n 6 per time point). Blood was collected, and heart, lung, liver, intestine, stomach, spleen, kidneys, adrenals, testes, brain and other organs were excised and weighed. Radioactivity was measured using a gamma-counter.

[2] = target: T1, human Cyp11B2, aldosterone synthase (Homo sapiens, UniProt P19099); test: Cyp11B2 (aldosterone synthase) inhibition in stably transfected Y1-Cyp11B2 cells, substrate 11-deoxycorticosterone (DOC); format: cell-based
T1 construct: the full-length cDNAs for the proteins were subcloned into the multicloning site of pcDNA3.1 (zeo); expressed in transfected cells
T1 sequence (P19099 25-503): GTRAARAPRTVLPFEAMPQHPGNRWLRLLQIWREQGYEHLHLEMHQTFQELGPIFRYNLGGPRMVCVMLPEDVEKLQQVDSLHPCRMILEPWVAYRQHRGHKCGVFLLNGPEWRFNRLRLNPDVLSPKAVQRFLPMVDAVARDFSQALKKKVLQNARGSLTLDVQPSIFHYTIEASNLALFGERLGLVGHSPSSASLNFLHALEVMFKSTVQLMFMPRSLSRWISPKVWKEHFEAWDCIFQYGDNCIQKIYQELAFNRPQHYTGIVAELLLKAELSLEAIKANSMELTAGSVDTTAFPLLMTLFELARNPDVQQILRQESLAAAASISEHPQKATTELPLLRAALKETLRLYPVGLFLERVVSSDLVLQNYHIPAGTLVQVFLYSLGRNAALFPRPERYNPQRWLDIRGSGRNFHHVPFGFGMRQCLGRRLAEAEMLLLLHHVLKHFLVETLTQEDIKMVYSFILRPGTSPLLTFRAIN
From the text: (§1) Plasmid constructs and transfection: To induce expression of human cytochrome P450 family 11B1 (Cyp11B1) and Cyp11B2 enzymes in Y1 cells, the full-length cDNAs for the proteins were subcloned into the multicloning site of pcDNA3.1 (zeo) (Invitrogen, Eggenstein, Germany). The cDNA fragments were isolated by PCR and digested by EcoRI. The individual fragments were ligated into the linearized vectors digested by EcoRI. Human Cyp11B1 and Cyp11B2 enzymes were expressed in Y1 cells using liposome/lipid-mediated DNA transfection. Purified plasmid DNA was mixed with Lipofectamine (Invitrogen) transfection reagents according to the manufacturer's protocol. To generate a stable Y1-Cyp11B1 and Y1-Cyp11B2 cell line, Y1 cells were transfected with the pcDNA3.1 (zeo)-Cyp11B1 and pcDNA3.1 (zeo)-Cyp11B2 vector, respectively.
(§2) Transfected cells were selected with 1000 μg/ml zeocin (Invitrogen). To screen colonies, Western blotting and real-time PCR were used to determine the level of Cyp11B1 and Cyp11B2 expression. Colonies with the highest Cyp11B expression were further tested for their ability to synthesize cortisol or aldosterone from deoxycortisol (RSS) and 11-deoxycorticosterone (DOC), respectively. Experimental protocols were standardized regarding substrate concentrations and incubation periods.
The enzyme reaction was started after 24 hours by the addition of 1 ml culture medium containing either 11-deoxycortisol (RSS) or 11-deoxycorticosterone (DOC) as substrate and the corresponding inhibitor. RSS and DOC were dissolved in ethanol to a final test concentration of 1 μM. […] Y1-Cyp11B1 and Y1-Cyp11B2 cells, which were treated in the same way but without inhibitors, served as controls. As further controls, untransfected Y1 cells were also incubated with RSS and DOC, respectively. Both RSS and DOC were obtained from Sigma (Deisenhofen, Germany).

adrenal glands = test: Uptake in adrenal glands in mice, ex vivo gamma counting; details: male CD-1 mice; for uptake in adrenal glands compared to IMTO: i.v. 1 μCi (37 kBq), 15, 30, 120 and 240 min, 2a especially after 120 and 240 minutes, 2e at any time point
Procedure: The uptake of IMTO, (R)-1-[1-(4-iodophenyl)ethyl]-1H-imidazole-5-carboxylic acid ethyl-methyl amide (compound 2a) and (R)-1-[1-(4-iodophenyl)ethyl]-1H-imidazole-5-carboxylic acid azetidinylamide (compound 2e) in adrenal glands in mice in ex vivo experiments has been examined as follows. Male CD-1 mice were injected i.v. with 1 μCi (37 kBq) IMTO, (R)-1-[1-(4-[^125I]iodophenyl)ethyl]-1H-imidazole-5-carboxylic acid ethyl-methyl amide or (R)-1-[1-(4-iodophenyl)ethyl]-1H-imidazole-5-carboxylic acid azetidinylamide (compound 2e). At predefined time points (15 min, 30 min, 120 min, and 240 min) mice were killed (n≧6 per time point) and adrenals were excised and weighed. Radioactivity was measured using a gamma-counter.

[3] = target: T2, human cytochrome P450 family 11B1 (Cyp11B1), 11β-hydroxylase (Homo sapiens, UniProt P15538); test: Cyp11B1 (11β-hydroxylase) inhibition in stably transfected Y1-Cyp11B1 cells, substrate 11-deoxycortisol (RSS); format: cell-based
T2 construct: the full-length cDNAs for the proteins were subcloned into the multicloning site of pcDNA3.1 (zeo); expressed in transfected cells
T2 sequence (P15538 25-503): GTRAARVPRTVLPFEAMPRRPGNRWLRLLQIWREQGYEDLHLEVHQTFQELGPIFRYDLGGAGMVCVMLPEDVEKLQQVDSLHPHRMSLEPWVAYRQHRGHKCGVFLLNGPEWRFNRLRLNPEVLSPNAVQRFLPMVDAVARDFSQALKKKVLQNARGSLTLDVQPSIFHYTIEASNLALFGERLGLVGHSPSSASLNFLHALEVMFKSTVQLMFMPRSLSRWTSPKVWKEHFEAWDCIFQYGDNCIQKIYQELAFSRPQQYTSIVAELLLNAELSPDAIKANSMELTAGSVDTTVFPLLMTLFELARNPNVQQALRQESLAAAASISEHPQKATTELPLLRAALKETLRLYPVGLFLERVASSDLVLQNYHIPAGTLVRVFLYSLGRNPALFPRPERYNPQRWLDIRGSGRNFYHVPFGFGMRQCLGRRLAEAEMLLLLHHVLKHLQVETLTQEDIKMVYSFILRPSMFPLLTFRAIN
From the text: as §1, §2
In vitro evaluation of specificity: To evaluate Cyp11B1 and Cyp11B2 inhibition by the inventive compounds, Y1-Cyp11B1 and Y1-Cyp11B2 cells were subcultured on six-well plates (0.5×10^6 cells per well) in 2 ml culture medium.
The enzyme reaction was started after 24 hours by the addition of 1 ml culture medium containing either 11-deoxycortisol (RSS) or 11-deoxycorticosterone (DOC) as substrate and the corresponding inhibitor. RSS and DOC were dissolved in ethanol to a final test concentration of 1 μM. For determination of IC50 values, the inhibitors were added to the culture medium at concentrations between 0.6 nM and 60 μM and incubated for 48 h. Y1-Cyp11B1 and Y1-Cyp11B2 cells, which were treated in the same way but without inhibitors, served as controls. As further controls, untransfected Y1 cells were also incubated with RSS and DOC, respectively. Both RSS and DOC were obtained from Sigma (Deisenhofen, Germany).

[4] = Metabolization of IMTO in the blood of patients; details: iodometomidate acid identified after few minutes as product of enzymatic hydrolysis
CYP11B2 = target: T3, CYP11B2 (Homo sapiens, UniProt P19099); details: in contrast to IMTO; cited from earlier work
T3 sequence (P19099 25-503): T1 sequence (P19099 25-503)

Cyp11B1 = target: T4, Cyp11B1 (Homo sapiens, UniProt P15538); details: in contrast to IMTO; cited from earlier work
T4 sequence (P15538 25-503): T2 sequence (P15538 25-503)

adrenocortical carcinoma = details: advanced disease, retrospective analyses; cited from earlier work
[5] = Y1-Cyp11B2 cells, 1 μM DOC, 48 h incubation, read-out: IC50 aldosterone synthase
[6] = Y1-Cyp11B1 cells, 1 μM RSS, 48 h incubation, read-out: IC50 11β-hydroxylase

SMILES: CCN(C)C(=O)c1cncn1[C@H](C)c1ccc(I)cc1 [2a, (R)-1-[1-(4-Iodophenyl)ethyl]-1H-imidazole-5-carboxylic acid ethylmethylamide]
- biodistribution: organ of predominant uptake [1]: predominately in adrenal gland
- IC50 [2]: 4.2 ± 0.37 nM
- uptake in adrenal glands compared to IMTO (adrenal glands): increased
- IC50 [3]: 3.9 ± 0.6 nM

SMILES: CCN(CC)C(=O)c1cncn1[C@H](C)c1ccc(I)cc1 [2b]
- IC50 [2]: 10.9 ± 2.02 nM
- IC50 [3]: 36.6 nM

SMILES: C[C@H](c1ccc(I)cc1)n1cncc1C(=O)N1CCC1 [2e, (R)-1-[1-(4-Iodophenyl)ethyl]-1H-imidazole-5-carboxylic acid azetidinylamide]
- biodistribution: organ of predominant uptake [1]: predominately in adrenal gland
- IC50 [2]: 1.22 ± 0.08 nM
- uptake in adrenal glands compared to IMTO (adrenal glands): greatly increased
- factor of increase of adrenal uptake compared to IMTO (adrenal glands; i.v., after 240 minutes): about 10
- IC50 [3]: 3.16 ± 0.14 nM

SMILES: C[C@H](c1ccc(I)cc1)n1cncc1C(=O)N1CCCCC1 [2g]
- IC50 [2, 5]: 5.5 ± 2.2 nM
- IC50 [3, 6]: 11.7 nM

SMILES: C[C@H](c1ccc(I)cc1)n1cncc1C(=O)N1CCOCC1 [2h]
- IC50 [2, 5]: 182 nM
- IC50 [3, 6]: 805 nM

SMILES: C[C@H](c1ccc(I)cc1)n1cncc1C(=O)N(C)C [2i]
- IC50 [2]: 15.7 nM
- IC50 [3]: > 1000 nM

SMILES: C[C@H](c1ccc(I)cc1)n1cncc1C(N)=O [2j]
- IC50 [2]: 1410 ± 2070 nM
- IC50 [3]: 329 ± 310 nM

SMILES: C[C@H](c1ccc(I)cc1)n1cncc1C(=O)NCCO [2k]
- IC50 [2]: 221 ± 168 nM
- IC50 [3]: 336 ± 398 nM

SMILES: CCCN(C)C(=O)c1cncn1[C@H](C)c1ccc(I)cc1 [2l]
- IC50 [2]: 3.5 ± 7.5 nM
- IC50 [3]: 74.7 nM

SMILES: CC(C)N(C)C(=O)c1cncn1[C@H](C)c1ccc(I)cc1 [2m]
- IC50 [2]: 147 ± 61.9 nM
- IC50 [3]: 78.2 nM

SMILES: CCCN(CC)C(=O)c1cncn1[C@H](C)c1ccc(I)cc1 [2n]
- IC50 [2]: 390 ± 170 nM
- IC50 [3]: 1320 nM

SMILES: Cc1nnc(-c2cncn2[C@H](C)c2ccc(I)cc2)o1 [6a]
- IC50 [2, 5]: 90.1 nM
- IC50 [3, 6]: 10.6 ± 9.2 nM

SMILES: COC(=O)c1cncn1[C@H](C)c1ccc(I)cc1 [iodometomidate (IMTO), 4-Iodometomidate, reference compound]
- IC50 [2]: 2 ± 2.3 nM
- biological half-life in the blood of patients [4]: very limited
- IC50 [3]: 2.6 ± 1.1 nM

SMILES: C[C@H](c1ccc(I)cc1)n1cncc1C(=O)O [iodometomidate acid, (R)-1-[1-(4-Iodophenyl)ethyl]-1H-imidazole-5-carboxylic acid]
- affinity to CYP11B2 (CYP11B2): little or no affinity
- affinity to Cyp11B1 (Cyp11B1): little or no affinity

SMILES: Clc1ccc(C(c2ccccc2Cl)C(Cl)Cl)cc1 (centres unmarked) [mitotane]
- overall response rate (adrenocortical carcinoma): 26%
